In patent publication US20090136579A1, “Nanoparticles Comprising a PDGF Receptor Tyrosine Kinase Inhibitor” (priority 2006, published 2009):
Entries after “also recorded” stand apart in the source; their conditions may differ. Where two headings read alike, the source gives them in different places.

Key:
[1] = system: rabbit vein graft; test: Rabbit vein graft failure model (vein autograft implanted into carotid artery); type: in vivo; conditions: graft treated for 30 min, Imatinib 10% w/v; 4 weeks
From the text: A rabbit vein autograft is implanted into a carotid artery to prepare a rabbit vein graft failure model. In this model, a lumen stenosis due to neointimal formation develops after 4 weeks.

[2] = system: Human coronary artery arterial vascular SMCs; conditions: for inhibition of PDGF-BB induced SMC proliferation, dose dependence: free Imatinib 0.1, 1, 10 μM, PDGF-BB 10 ng/ml
Description: Human coronary artery arterial vascular SMCs (Cambrex Bio Science Walkersville, Inc) are seeded on 48-well culture plates (FALCON 354506 BIOCOAT CELL WARE Human Fibronectin) at 5×10^3 cells per well (n=6 per group) in SM-BM with 10% FBS. After 24 hours, the cells are starved for 72 hours in serum free medium to obtain quiescent non-dividing cells. After starvation, recombinant PDGF-BB (Sigma) 10 ng/m^1 is added. […] These wells are washed with PBS before PDGF stimulation. Four days later, the cells are fixed with methanol and stained with Diff-Quick staining solution (Baxter). A single observer who is blinded the experimental protocol counted the number of cells/plate under a microscope for quantification of SMC proliferation.

[3] = system: Rat aortic SMCs; conditions: for inhibition of PDGF-BB induced SMC migration, dose dependence: free Imatinib 0.1, 1, 10 μM, PDGF-BB 10 ng/ml
Description: Migration of rat aortic SMCs is assessed with a Boyden chamber type cell migration assay kit housing a collagen-precoated polycarbonate membrane with 8.0-μm pores (Chemicon), as we previously described (Ono H, Ichiki T, et al. Arterioscler Thromb Vasc Biol. 2004; 24:1634-9.). SMCs are grown to semiconfluent and then made quiescent in serum free medium for 24 hours before migration. The cells (1×10^5 cells/ml) are added to the upper chamber of the membrane (n=6 per group) and allowed to migrate through the pores. […] These cells are washed with PBS before PDGF stimulation. SMCs are then exposed. to PDGF-BB (10 ng/ml) in the lower chamber for 4 hours, after which non-migrated cells are removed from the upper chamber using a cotton swab. The SMCs that migrate to the lower side of the filter are fixed in methanol, stained with Diff-Quick staining solution (Baxter), and counted under a microscope for quantification of SMC migration.

[4] = listed as non-encapsulated Imatinib
[5] = free Imatinib at 0.1 μM, listed as free Imatinib

Cc1ccc(NC(=O)c2ccc(CN3CCN(C)CC3)cc2)cc1Nc1nccc(-c2cccnc2)n1 [Imatinib, N-{5-[4-(4-methylpiperazino-methyl)-benzoylamido]-2-methylphenyl}-4-(3-pyridyl)-2-pydmidine-amine]
neointimal formation of vein graft [1]: No suppression | inhibition of PDGF-BB induced SMC proliferation, dose dependence [2]: dose-dependently reduces | inhibition of PDGF-BB induced SMC proliferation, dose dependence ([2]; listed as free Imatinib): dose-dependent manner | inhibition of PDGF-BB induced SMC proliferation, dose dependence [2, 4]: dose-dependent manner | effect on PDGF-induced SMC proliferation ([2]; free Imatinib at 0.1 μM): no effect | effect on PDGF-induced SMC proliferation [2, 5]: no effects | effect on PDGF-induced SMC proliferation ([2]; free Imatinib at 10 μM): normalizes; also recorded: completely abolishes | inhibition of PDGF-BB induced SMC migration, dose dependence [3]: dose-dependent inhibitory effect | inhibition of PDGF-BB induced SMC migration, dose dependence ([3]; listed as free Imatinib): dose-dependent manner | inhibition of PDGF-BB induced SMC migration, dose dependence [3, 4]: dose-dependent manner | effect on PDGF-induced SMC migration ([3]; free Imatinib at 0.1 μM): no effect | effect on PDGF-induced SMC migration [3, 5]: no effects | effect on PDGF-induced SMC migration ([3]; free Imatinib at 10 μM): normalizes
